Source: US10106853B2, “CUL4B as predictive biomarker for cancer treatment” (CORNELL UNIVERSITY, priority 2012, dated 2018)

Experiments:
Type in all cases: cell-based, Human
[1] = system: T47D cells; assay: XTT assay for cytotoxic response to camptothecin, T47D
[2] = system: γH2AX in BT474 cells; assay: Western blot analysis for γH2AX; conditions: CPT-treated BT474 cells with CUL4B silencing via shRNA vs control; 2 μM CPT
Description: FIG. 3. CUL4B^k/d BT474 cells are susceptible to CPT-induced DNA damage. A) Persistent DNA damage in CPT-treated BT474-CUL4B^k/d cells. Control or CUL4B^k/d BT474 cells were treated with 2 μM of CPT for the indicated time periods, replenished with CPT-free fresh medium, incubated at 37° C. for 1 hour to repair DNA damage, and subjected to immunoblotting with the anti-γH2AX antibody to determine the extent of DNA damage. B) Immunofluorescent detection of γH2AX foci in control or CUL4B^k/d BT474 cells following CPT treatment. BT474 cells were infected with lentiviral control shRNA (shCtrl) or shCUL4B, treated with 2 μM CPT for 2 hours and replenished with CPT-free fresh medium, incubated at 37° C. for 1 hour to repair DNA damage. γH2AX foci were detected by immunofluorescent assay with the rabbit anti-γH2AX antibody and goat anti-rabbit secondary antibody conjugated with cy3 (red). Nuclei were stained with DAPI (blue). C, D) Percentage of γH2AX-positive cells and number of persistent γH2AX foci in a total of 300 γH2AX-positive cells. All values were presented as mean±S.E. Statistical significance was assessed by a two-tailed unpaired Student t-test (***: p<0.001). […]

[3] = system: BT474 cells; assay: XTT assay for cytotoxic response to camptothecin, BT474
Description: FIG. 2. CUL4B interacted with Top1 and induced Top1 degradation in the presence of CPT. A) Knockdown of CUL4B impaired CPT-induced Top1 degradation. BT474 cells were infected with lentiviral shCUL4B, shCUL4A or control non-targeting shRNA, and selected for stable CUL4B^k/d or CUL4A^k/d cells upon treatment with puromycin. Following treatment with CPT (50 μM) for 1 hour, cells were replenished with CPT-free fresh medium and incubated at 37° C. for 30 minutes. Top1 degradation was assessed by immunoblotting with an anti-Top1 antibody. Levels of α-tubulin were measured as a loading control. B) Association of CUL4B with Top1 following CPT treatment. […] Top1 degradation was assessed by immunoblotting with the anti-Top1 antibody. Levels of α-tubulin were measured as a loading control. […] Statistical significance in cellular response to CPT between control BT474 cells and CUL4A^k/d or CUL4B^k/d cells were assessed by a two-tailed unpaired student t-test (***: p<0.001). […] Statistical significance in cellular response to camptothecin between control cells and CUL4A^k/d or CUL4B^k/d BT474 cells are assessed by student's t-test.
Synchronized cells were seeded into 96-well microplates. […] The optical density was measured with a microplate reader. […] Data were expressed as the mean±S.E. Difference in the survival ratios between the two cell lines at each concentration point was assessed by the student's T test. […]

With `CC[C@@]1(O)C(=O)OCc2c1cc1n(c2=O)Cc2cc3ccccc3nc2-1` [CPT, (S)-4-ethyl-4-hydroxy-1H-pyrano[3′,4′:6,7]indolizino[1,2-b]quinoline-3,14-(4H, 12H)-dione] the “Survival rate of CPT-treated cells” value ([1]; T47D cells with knockdown of CUL4A) was “no effect”, the “Cytotoxic killing by CPT (cell survival)” value ([1]; T47D cells with knockdown of CUL4B, CPT three days) was “sensitized” and the “Levels of γH2AX (Western blotting)” value [2] was “elevated”. The “Survival rate of CPT-treated cells” value ([3]; BT474 cells with knockdown of CUL4A) was “no effect” and the “Cytotoxic killing by CPT (cell survival)” value ([3]; BT474 cells with knockdown of CUL4B, CPT three days) was “sensitized”.
